Experimental findings from US20260158017A1, “KIF18A INHIBITOR” (WIGEN BIOMEDICINE TECHNOLOGY (SHANGHAI) CO., LTD., priority 2021, published 2026) are described below.

As a reminder, the IC50 is the concentration that gives 50% inhibition.

The structures appear in SMILES notation.

In this experiment the target is T1, Recombinant human KIF18A (1-467His-tagged) protein (Homo sapiens, UniProt Q8NI77).
T1 construct: Recombinant human KIF18A (1-467His-tagged) protein; His; made in house
T1 sequence (Q8NI77 1-467): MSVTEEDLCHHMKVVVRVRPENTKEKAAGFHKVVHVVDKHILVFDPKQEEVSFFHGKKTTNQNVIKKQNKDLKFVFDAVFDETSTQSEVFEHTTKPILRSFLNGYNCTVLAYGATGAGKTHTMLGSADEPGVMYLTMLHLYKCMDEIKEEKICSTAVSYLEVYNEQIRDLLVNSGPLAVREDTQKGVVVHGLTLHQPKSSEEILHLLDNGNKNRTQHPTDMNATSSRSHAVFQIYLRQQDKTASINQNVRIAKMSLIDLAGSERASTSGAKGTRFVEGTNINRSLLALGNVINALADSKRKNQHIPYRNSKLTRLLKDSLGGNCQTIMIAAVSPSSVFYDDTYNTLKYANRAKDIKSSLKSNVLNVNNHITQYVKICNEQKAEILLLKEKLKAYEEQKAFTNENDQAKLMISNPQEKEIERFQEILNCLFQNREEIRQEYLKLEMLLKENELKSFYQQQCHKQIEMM
T1 sequence (P02550 whole entry partner): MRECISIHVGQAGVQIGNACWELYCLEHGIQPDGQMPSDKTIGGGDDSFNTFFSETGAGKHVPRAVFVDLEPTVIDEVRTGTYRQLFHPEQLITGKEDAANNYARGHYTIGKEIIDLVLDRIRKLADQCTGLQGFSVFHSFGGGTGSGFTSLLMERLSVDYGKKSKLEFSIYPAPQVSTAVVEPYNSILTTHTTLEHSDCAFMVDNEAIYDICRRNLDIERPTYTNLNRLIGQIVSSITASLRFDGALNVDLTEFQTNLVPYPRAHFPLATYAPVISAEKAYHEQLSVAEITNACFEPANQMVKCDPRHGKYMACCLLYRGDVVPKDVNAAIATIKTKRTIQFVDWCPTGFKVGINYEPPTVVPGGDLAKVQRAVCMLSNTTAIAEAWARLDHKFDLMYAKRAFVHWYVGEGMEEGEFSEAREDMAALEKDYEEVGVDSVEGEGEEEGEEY
T1 sequence (P02554 whole entry partner): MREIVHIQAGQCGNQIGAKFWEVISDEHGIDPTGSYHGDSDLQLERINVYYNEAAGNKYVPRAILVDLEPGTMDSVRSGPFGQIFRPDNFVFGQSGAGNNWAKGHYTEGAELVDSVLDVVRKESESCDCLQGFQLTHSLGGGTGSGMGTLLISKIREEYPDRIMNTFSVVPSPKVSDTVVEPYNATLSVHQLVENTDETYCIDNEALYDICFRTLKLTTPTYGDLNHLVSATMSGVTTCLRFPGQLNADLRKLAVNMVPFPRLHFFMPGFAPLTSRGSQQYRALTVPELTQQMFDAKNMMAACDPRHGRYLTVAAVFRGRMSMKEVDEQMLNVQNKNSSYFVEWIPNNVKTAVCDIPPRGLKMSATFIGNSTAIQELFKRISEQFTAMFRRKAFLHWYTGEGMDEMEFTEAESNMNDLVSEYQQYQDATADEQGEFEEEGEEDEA
Put plainly: KIF18A enzyme assay (microtubule-stimulated ATPase activity, ADP-Glo). It is filed as biochemical. The conditions noted are these: 30 nM KIF18A, 75 μM ATP, 30 μg/mL pig microtubules; read-out: Inhibitory activity against KIF18A IC50. How it is done: In Vitro Assay of the Compounds of the Present Invention for Inhibiting Enzymatic Activity of KIF18A
KIF18A enzyme assay: The enzymatic activity of KIF18A after treatment with the compounds was measured by an assay of microtubule-stimulated ATPase activity. ADP generated from the ATPase reaction was measured in this assay. The compounds were serially diluted 2-fold in DMSO over a range of 22 concentration points. […] Concentrations of KIF18A protein, microtubules, and ATP in the reaction were optimized for a standardized homogenous enzyme assay using an ADP-Glo kinase/ATPase assay kit. A reaction buffer [(15 mM Tris, pH 7.5), 10 mM MgCl2, 0.01% PluronicF-68, 1 μM paclitaxel, and 30 μg/mL pig microtubules] was prepared. […] The resulting reaction mixture was incubated at room temperature for another 15 min. 5 μL of ADP-Glo reagent and 2.5 μL of the reaction mixture were mixed and the resulting mixture was incubated at room temperature for 40 min. 10 μL of ADP-Glo detection reagent was added and the mixture was incubated at room temperature for 40 min. Luminescence was read using a microplate reader and compared with that of the DMSO group, and then the inhibition percentages and IC50 values of the compounds were calculated.
As for `C[C@@H]1CN(c2cc(NC(=O)c3cnc(NS(=O)(=O)[C@@H](C)CO)cc3N3CCC4(CC3)CC4)ccc2[N+](=O)[O-])CCO1` [Compound 111], the half-inhibitory concentration (IC50) was not above 100 nM.

Turning to `O=C(Nc1ccc(NS(=O)(=O)CCO)cc1N1CCC2(CC1)CC2)c1ccc(OCF)c(N2CC3CC3C2)c1` (centres unmarked) [Compound 522], the IC50 was not above 100 nM.

Turning to `CSc1ccc(NC(=O)c2ccc(NS(=O)(=O)CCO)cc2N2CCC3(CC2)CC3)nc1N1CCO[C@@H](C)C1` [Compound 595], the half-maximal inhibitory concentration (IC50) was not above 100 nM.

Turning to `CC1(F)CCN(c2cc(NC(=O)c3ccc(S(=O)(=O)NCCO)cc3N3CCC4(CC3)CC4)ccc2[N+](=O)[O-])C1` (centres unmarked) [Compound 24], the half-maximal inhibitory concentration (IC50) was not above 100 nM.

Turning to `COc1ccc(C(=O)Nc2ccc(NS(=O)(=O)CCO)cc2N2CCC3(CC2)CC3)nc1OCCC(F)(F)F` [Compound 325], the concentration for half-maximal inhibition (IC50) is not above 100 nM.

For the compound `O=C(Nc1ccc([N+](=O)[O-])c(N2CCC(F)CC2)c1)c1ccc(NS(=O)(=O)CCO)cc1N1CCC2(CC1)CC2` [Compound 9], the IC50 was not above 100 nM.

On to `O=C(Nc1ccc([N+](=O)[O-])c(N2CC3CC3C2)c1)c1cnc(S(=O)(=O)NCCO)cc1N1CCC2(CC1)CC2` (centres unmarked) [Compound 122], for which the IC50 was not above 100 nM.

Take `COc1ccc(C(=O)Nc2cnc(NS(=O)(=O)CCO)cc2N2CCC3(CC2)CC3)nc1N1CCOCC1` [Compound 364]: the IC50 is not above 100 nM.

`CSc1ccc(NC(=O)c2cnc(NS(=O)(=O)CCO)cc2N2CCC3(CC2)CC3)cc1N1CCC(F)CC1` [Compound 617]: the IC50 was not above 100 nM.

Turning to `C[C@H](CO)S(=O)(=O)Nc1ccc(C(=O)Nc2ccc([N+](=O)[O-])c(N3CCC(F)(F)CC3)n2)c(N2CCC3(CC2)CC3)c1` [Compound 78], the IC50 is not above 100 nM.

For `COc1ccc(NC(=O)c2cnc(NS(=O)(=O)CCO)cc2N2CCC3(CC2)CC3)nc1OC1CCC1` [Compound 295], the IC50 was not above 100 nM.

Consider `C[C@@H]1CN(c2cc(C(=O)Nc3ccc(NS(=O)(=O)CCO)cc3N3CCC4(CC3)CC4)ccc2[N+](=O)[O-])CCO1` [Compound 34], for which the IC50 is not above 100 nM.

As for `C[C@@H]1CN(c2nc(C(=O)Nc3cnc(NS(=O)(=O)[C@H](C)CO)cc3N3CCC4(CC3)CC4)ccc2[N+](=O)[O-])CCO1` [Compound 240], the IC50 was not above 100 nM.

On to `CC(C)(CO)Nc1nc(NC(=O)c2cnc(NS(=O)(=O)CCO)cc2N2CCC3(CC2)CC3)ccc1[N+](=O)[O-]` [Compound 139], for which the IC50 is not above 100 nM.

With `O=C(Nc1ccc(NS(=O)(=O)CCO)cc1N1CCC2(CC1)CC2)c1ccc(OCF)c(N2CCC3(CC3)C2)n1` [Compound 550], the 50% inhibitory concentration (IC50) is not above 100 nM.

Regarding `O=C(Nc1ccc(OCF)c(OCCC(F)(F)F)c1)c1cnc(NS(=O)(=O)CCO)cc1N1CCC2(CC1)CC2` [Compound 453], the half-maximal inhibitory concentration (IC50) was not above 100 nM.

On to `COc1ccc(C(=O)Nc2ccc(NS(=O)(=O)CCO)cc2N2CCC3(CC2)CC3)nc1OC1CCC1` [Compound 327], for which the IC50 was not above 100 nM.

Regarding `COc1ccc(NC(=O)c2cnc(NS(=O)(=O)[C@H](C)CO)cc2N2CCC3(CC2)CC3)nc1N1CCC(F)(F)CC1` [Compound 302], the IC50 was not above 100 nM.

For the compound `O=C(Nc1ccc(OCF)c(N2CC3CC3C2)n1)c1cnc(NS(=O)(=O)CCO)cc1N1CCC2(CC1)CC2` (centres unmarked) [Compound 490], the half-maximal inhibitory concentration (IC50) was not above 100 nM.

Consider `CSc1ccc(NC(=O)c2cnc(NS(=O)(=O)CCO)cc2N2CCC3(CC2)CC3)nc1N1CCC(F)CC1` [Compound 633], for which the IC50 was not above 100 nM.

With `CSc1ccc(NC(=O)c2ccc(NS(=O)(=O)CCO)cc2N2CCC3(CC2)CC3)nc1N1CCO[C@H](C)C1` [Compound 594], the half-inhibitory concentration (IC50) is not above 100 nM.

For `O=C(Nc1cnc(S(=O)(=O)NCCO)cc1N1CCC2(CC1)CC2)c1ccc([N+](=O)[O-])c(N2CCC(F)CC2)c1` [Compound 217], the concentration for half-maximal inhibition (IC50) lay in the range of 100 to 500 nM.

Turning to `COc1ccc(NC(=O)c2ccc(S(=O)(=O)N[C@@H](C)CO)cc2N2CCC3(CC2)CC3)nc1N1CCO[C@H](C)C1` [Compound 287], the IC50 was not above 100 nM.

`C[C@H](CO)S(=O)(=O)Nc1cc(N2CCC3(CC2)CC3)c(NC(=O)c2ccc([N+](=O)[O-])c(N3CCC(F)(F)CC3)n2)cn1` [Compound 238]: the IC50 was not above 100 nM.

Take `C[C@@H]1CN(c2cc(NC(=O)c3ccc(S(=O)(=O)NCCO)cc3N3CCC4(CC3)CC4)ccc2[N+](=O)[O-])CCO1` [Compound 18]: the IC50 is not above 100 nM.

Turning to `COc1ccc(C(=O)Nc2ccc(S(=O)(=O)N[C@H](C)CO)cc2N2CCC3(CC2)CC3)nc1N1CCC(F)(F)CC1` [Compound 350], the half-inhibitory concentration (IC50) is not above 100 nM.

On to `COc1ccc(NC(=O)c2ccc(S(=O)(=O)NCCO)cc2N2CCC3(CC2)CC3)nc1OC1CCC1` [Compound 279], for which the IC50 is not above 100 nM.

With `C[C@H](CO)NS(=O)(=O)c1cc(N2CCC3(CC2)CC3)c(C(=O)Nc2ccc([N+](=O)[O-])c(N3CCC(F)(F)CC3)c2)cn1` [Compound 126], the IC50 is not above 100 nM.

Regarding `C[C@H](CO)NS(=O)(=O)c1ccc(C(=O)Nc2ccc(OCF)c(N3CCO[C@H](C)C3)n2)c(N2CCC3(CC2)CC3)c1` [Compound 448], the concentration for half-maximal inhibition (IC50) is not above 100 nM.

Turning to `O=C(Nc1ccc(OCF)c(N2CC(F)(F)C2)c1)c1ccc(S(=O)(=O)NCCO)cc1N1CCC2(CC1)CC2` [Compound 404], the IC50 was not above 100 nM.

On to `O=C(Nc1ccc([N+](=O)[O-])c(N2CCC3(CC3)C2)n1)c1cnc(NS(=O)(=O)CCO)cc1N1CCC2(CC1)CC2` [Compound 134], for which the half-inhibitory concentration (IC50) is not above 100 nM.

As for `C[C@@H]1CN(c2nc(C(=O)Nc3ccc(S(=O)(=O)N[C@@H](C)CO)cc3N3CCC4(CC3)CC4)ccc2OCF)CCO1` [Compound 575], the IC50 lay within 100 to 500 nM.

Consider `O=C(Nc1cnc(S(=O)(=O)NCCO)cc1N1CCC2(CC1)CC2)c1ccc([N+](=O)[O-])c(OC2CCC2)c1` [Compound 215], for which the IC50 lay in the range of 100 to 500 nM.

`CSc1ccc(NC(=O)c2cnc(NS(=O)(=O)CCO)cc2N2CCC3(CC2)CC3)nc1N1CCO[C@H](C)C1` [Compound 626]: the 50% inhibitory concentration (IC50) is not above 100 nM.

As to `O=C(Nc1ccc(OCF)c(N2CCC(F)CC2)c1)c1cnc(NS(=O)(=O)CCO)cc1N1CCC2(CC1)CC2` [Compound 457], the IC50 is not above 100 nM.

Take `CSc1ccc(NC(=O)c2ccc(NS(=O)(=O)CCO)cc2N2CCC3(CC2)CC3)cc1N1CCO[C@H](C)C1` [Compound 578]: the IC50 is not above 100 nM.

As for `C[C@@H](CO)NS(=O)(=O)c1ccc(C(=O)Nc2ccc([N+](=O)[O-])c(N3CCC(F)(F)CC3)n2)c(N2CCC3(CC2)CC3)c1` [Compound 93], the IC50 is not above 100 nM.

As to `COc1ccc(NC(=O)c2ccc(S(=O)(=O)NCCO)cc2N2CCC3(CC2)CC3)nc1NC(C)(C)CO` [Compound 283], the IC50 is not above 100 nM.

As for `O=C(Nc1ccc([N+](=O)[O-])c(N2CC(F)(F)C2)c1)c1cnc(S(=O)(=O)NCCO)cc1N1CCC2(CC1)CC2` [Compound 116], the IC50 is not above 100 nM.

As to `C[C@H]1CN(c2cc(C(=O)Nc3ccc(S(=O)(=O)NCCO)cc3N3CCC4(CC3)CC4)ccc2OCF)CCO1` [Compound 531], the IC50 was in the range of 100 to 500 nM.

With `O=C(Nc1ccc(OCF)c(N2CCC3(CC3)C2)c1)c1cnc(NS(=O)(=O)CCO)cc1N1CCC2(CC1)CC2` [Compound 454], the IC50 is not above 100 nM.

As for `C[C@H]1CN(c2cc(C(=O)Nc3ccc(NS(=O)(=O)CCO)cc3N3CCC4(CC3)CC4)ccc2[N+](=O)[O-])CCO1` [Compound 35], the IC50 was in the range of 100 to 500 nM.

As for `O=C(Nc1ccc(OCF)c(N2CC(F)(F)C2)n1)c1cnc(S(=O)(=O)NCCO)cc1N1CCC2(CC1)CC2` [Compound 500], the IC50 is not above 100 nM.

With `O=C(Nc1ccc(OCF)c(OC2CCC2)c1)c1ccc(NS(=O)(=O)CCO)cc1N1CCC2(CC1)CC2` [Compound 391], the 50% inhibitory concentration (IC50) is not above 100 nM.

For `COc1ccc(NC(=O)c2ccc(NS(=O)(=O)[C@H](C)CO)cc2N2CCC3(CC2)CC3)nc1N1CCO[C@H](C)C1` [Compound 272], the IC50 was not above 100 nM.

On to `C[C@@H]1CN(c2nc(NC(=O)c3ccc(NS(=O)(=O)[C@@H](C)CO)cc3N3CCC4(CC3)CC4)ccc2OCF)CCO1` [Compound 431], for which the IC50 was not above 100 nM.

In the case of `COc1ccc(C(=O)Nc2cnc(NS(=O)(=O)CCO)cc2N2CCC3(CC2)CC3)nc1N1CCO[C@@H](C)C1` [Compound 355], the IC50 is not above 100 nM.

In the case of `O=C(Nc1ccc(NS(=O)(=O)CCO)cc1N1CCC2(CC1)CC2)c1ccc([N+](=O)[O-])c(N2CCC3(CC3)C2)c1` [Compound 38], the concentration for half-maximal inhibition (IC50) was not above 100 nM.

`C[C@H]1CN(c2nc(NC(=O)c3ccc(NS(=O)(=O)CCO)cc3N3CCC4(CC3)CC4)ccc2[N+](=O)[O-])CCO1` [Compound 67]: the 50% inhibitory concentration (IC50) was not above 100 nM.

Turning to `COc1ccc(C(=O)Nc2ccc(NS(=O)(=O)[C@H](C)CO)cc2N2CCC3(CC2)CC3)nc1N1CCO[C@H](C)C1` [Compound 336], the IC50 was not above 100 nM.

Take `C[C@@H](CO)NS(=O)(=O)c1cc(N2CCC3(CC2)CC3)c(C(=O)Nc2ccc(OCF)c(N3CCC(F)(F)CC3)n2)cn1` [Compound 509]: the IC50 is not above 100 nM.

On to `O=C(Nc1cnc(S(=O)(=O)NCCO)cc1N1CCC2(CC1)CC2)c1ccc([N+](=O)[O-])c(N2CCC(F)(F)CC2)c1` [Compound 209], for which the 50% inhibitory concentration (IC50) lay within 100 to 500 nM.

Take `C[C@@H]1CN(c2nc(NC(=O)c3ccc(NS(=O)(=O)[C@H](C)CO)cc3N3CCC4(CC3)CC4)ccc2OCF)CCO1` [Compound 432]: the IC50 was not above 100 nM.
